# Assay results taken from patent US20100303793A1, “COMBINATION THERAPY FOR CARDIAC REVASCULARIZATION AND CARDIAC REPAIR” (The Board of Regents, The University of Texas Syst, priority 2007, published 2010).
# B1: PDGF: platelet-derived growth factor-BB, angiogenic factor (R&D System) (protein, UniProt P01127 82-190, looked up)
# Platelet-derived growth …: SLGSLTIAEPAMIAECKTRTEVFEISRRLIDRTNANFLVWPPCVEVQRCSGCCNNRNVQCRPTQVQLRPVQVRKIEIVRKKPIFKKATVTLEDHLACKCETVAAARPVT
# Columns and labels:
# [1] = system: Human coronary artery endothelial (HCAE) cells; assay: Invasion of HCAE cells through Matrigel toward bFGF; format: cell-based; details: bFGF 10 ng/ml, 22 h
# Experimental: (§1) The design of experiments to measure invasion and migration of endothelial cells toward the angiogenic factor bFGF (basic fibroblast growth factor) is shown in FIGS. 5A and 6A, respectively. The standard assay used 5×10^4 cells added to the top of the insert in 250 μl of medium. The lower portion of the apparatus contained 750 μl of medium, plus or minus bFGF. […] Transmembrane cell invasion and migration assays were performed using BD FluoroBlok (BD Bioscience, Bedford, Mass.) inserts coated with BD Matrigel Matrix (a biologically active basement membrane preparation) or with fibronectin, respectively. […] (R&D System, Minneapolis, Minn.) (FGF) or medium alone (CTR) were added to the lower chamber of the insert plate as a chemoattractant. The cells were allowed to invade or migrate for 22 hours. Cells were labeled post invasion or post migration with Calcein AM (4 μg/ml) and the fluorescence of the cells that invaded through the BD Matrigel Matrix or migrated to the underside of the insert membrane was measured using a plate reader at 485 nm (excitation) and 530 nm (emission).
# [2] = system: Human coronary artery endothelial (HCAE) cells; assay: Migration of HCAE cells through fibronectin-coated insert toward bFGF; format: cell-based; details: bFGF 10 ng/ml, 22 h
# Experimental: as §1
# AC-23 = assay: Binding of biotin-conjugated thrombin to complementary peptide AC-23
# 23C53 = assay: Binding of biotin-conjugated thrombin to complementary peptide 23C53
# [3] = system: Human coronary artery endothelial (HCAE) cells; assay: Migration of HCAE cells through fibronectin-coated insert toward PDGF; format: cell-based; details: PDGF 10 ng/ml, 22 h
# Experimental: (§2) The design of experiments to measure invasion and migration of endothelial cells toward the angiogenic factor PDGF (platelet-derived growth factor-BB) is shown in FIGS. 7A and 8A respectively. The standard assay used 5×10^4 cells added to the top of the insert in […] of medium. The lower portion of the apparatus contained 750 μl of medium, plus or minus PDGF. […] Transmembrane cell invasion and migration assays were performed using BD FluoroBlok inserts coated with BD Matrigel Matrix (a biologically active basement membrane preparation) or with fibronectin (BD Bioscience, Bedford, Mass.), respectively. […] PDGF [10 ng/ml] (R&D System, Minneapolis, Minn. (PDGF) or medium alone (CTR) were added to the lower chamber of the insert plate as a chemoattractant. The cells were allowed to invade or migrate for 22 hours. Cells were labeled post invasion or post migration with Calcein AM (4 μg/ml) and the fluorescence of the cells that invaded through the BD Matrigel Matrix or migrated to the underside of the insert membrane was measured using a plate reader at 485 nm (excitation) and 530 nm (emission).
# [4] = system: Human coronary artery endothelial (HCAE) cells; assay: Invasion of HCAE cells through Matrigel toward PDGF; format: cell-based; details: PDGF 10 ng/ml, 22 h
# Experimental: as §2
# 23C53, sequence (as listed by the source): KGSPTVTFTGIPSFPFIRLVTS
# AC-23, sequence (as listed by the source): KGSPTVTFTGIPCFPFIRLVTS
molecule,measurement,setting,value
"bFGF: basic fibroblast growth factor, angiogenic factor (R&D System)","bFGF-induced endothelial cell invasion, % of invasion with control medium (CTR)",[1],~170%
same,Increase of endothelial cell migration by bFGF compared to control medium not containing bFGF,[2],~40%
thrombin,Specific binding of biotin-conjugated thrombin to AC23,AC-23,bind specifically
same,Specific binding of biotin-conjugated thrombin to 23C53,23C53,bind specifically
B1,Effect of PDGF on endothelial cell migration compared to control (CTR),[3],no effect
same,Effect of PDGF on endothelial cell invasion compared to control medium without PDGF,[4],no effect
